Assay results reported in patent US10597391B2, “Urea-containing isoxazole derivatives as FXR agonists and methods of use thereof” (Enanta Pharmaceuticals, Inc., priority 2016, dated 2020).
Like-named read-outs stand apart in the source and are kept apart here.

Target: T1, human FXR (NR1H4) (Homo sapiens, UniProt Q96RI1)
T1 sequence (Q96RI1 1-486): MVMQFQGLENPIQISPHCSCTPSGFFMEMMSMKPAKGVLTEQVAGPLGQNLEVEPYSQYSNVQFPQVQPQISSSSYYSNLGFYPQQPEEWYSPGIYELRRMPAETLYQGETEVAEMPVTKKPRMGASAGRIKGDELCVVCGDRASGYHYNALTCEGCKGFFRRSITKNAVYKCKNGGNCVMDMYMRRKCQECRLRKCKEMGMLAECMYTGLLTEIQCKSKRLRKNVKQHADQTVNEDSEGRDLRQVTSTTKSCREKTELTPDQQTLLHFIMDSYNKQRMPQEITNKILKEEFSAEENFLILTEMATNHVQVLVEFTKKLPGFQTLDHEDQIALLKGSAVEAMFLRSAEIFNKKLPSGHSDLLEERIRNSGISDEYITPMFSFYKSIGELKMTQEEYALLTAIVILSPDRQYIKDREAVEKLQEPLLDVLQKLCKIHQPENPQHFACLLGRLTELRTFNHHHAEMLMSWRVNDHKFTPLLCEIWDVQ
Experiment: Human FXR (NR1H4) Assay: Gal4 promoter driven luciferase reporter transactivation in CHO cells (Indigo Bioscience kit IB00601)
Type: cell-based
Conditions: for Emax: CHO, read-out: Efficacy (%); for EC50: Human FXR (NR1H4) reporter assay in CHO cells
From the text: Human FXR (NR1H4) Assay Determination of a ligand mediated Gal4 promoter driven transactivation to quantify ligand binding mediated activation of FXR. FXR Reporter Assay kit purchased from Indigo Bioscience (Catalogue number: IB00601) to determine the potency and efficacy of compounds that can induce FXR activation. The principle application of this reporter assay system is to quantify functional activity of human FXR. The assay utilizes non-human mammalian cells, CHO (Chinese hamster ovary) cells engineered to express human NR1H4 protein (referred to as FXR). Reporter cells also incorporate the cDNA encoding beetle luciferase which catalyzes the substrates and yields photon emission. Luminescence intensity of the reaction is quantified using a plate-reading luminometer, Envision. Reporter Cells include the luciferase reporter gene functionally linked to an FXR responsive promoter. Thus, quantifying changes in luciferase expression in the treated reporter cells provides a sensitive surrogate measure of the changes in FXR activity. […] The assay is according to the manufacturer's instructions. […] Retrieve Reporter Cells from −80° C. storage. Perform a rapid thaw of the frozen cells by transferring a 10 ml volume of 37° C. cell recovery medium into the tube of frozen cells. […] Retrieve the tube of Reporter Cell Suspension from the water bath. […] Dispense 90 μl of cell suspension into each well of the 96-well Assay Plate. Transfer the plate into 37° C. incubator, allowing the cells adherent to the bottom of the well. Dilute compounds in Dilution Plate (DP), and administrate to cells at Assay Plate (AP). […] Cells were incubated for additional 22 hours before luciferase activities were measured. Thirty minutes before intending to quantify FXR activity, remove Detection Substrate and Detection Buffer from the refrigerator and place them in a low-light area so that they may equilibrate to room temperature. Remove the plate's lid and discard all media contents by ejecting it into an appropriate waste container. Gently tap the inverted plate onto a clean absorbent paper towel to remove residual droplets. Cells will remain tightly adhered to well bottoms. Add 100 μl of luciferase detection reagent to each well of the assay plate. Allow the assay plate to rest at room temperature for at least 5 minutes following the addition of LDR. Set the instrument (Envision) to perform a single 5 second “plate shake” prior to reading the first assay well. Read time may be 0.5 second (500 mSec) per well.

[1] = efficacy normalized to CDCA set as 100%

| Structure (SMILES) | Emax [1] | EC50 (potency range, read-out: EC50) | Emax | EC50 (EC50, potency range) |
| --- | --- | --- | --- | --- |
| COC(=O)c1ccc2nc(NC(=O)N3C4CCC3CC(OCc3c(-c5c(Cl)cccc5Cl)noc3C3CC3)C4)ccc2c1 (stereo not shown) [Example 785] | 46% | 10 to 100 nM |  |  |
| COC(=O)c1ccc(NC(=O)N2C3CCC2CC(OCc2c(-c4c(Cl)cccc4Cl)noc2C2CC2)C3)c(C#N)c1 (stereo not shown) [Example 802] | 28% | 100 to 1000 nM |  |  |
| O=C(O)c1ccc2nc(NC(=O)N3C4CCC3CC(OCc3c(-c5c(Cl)cccc5Cl)noc3C3CC3)C4)sc2c1 (stereo not shown) [Example 805] | 104% | 10 to 100 nM |  |  |
| O=C(O)c1ccc(NC(=O)N2C3CCC2CC(OCc2c(-c4ccccc4C4CC4)noc2C2CC2)C3)c(F)c1 (stereo not shown) [Example 809] | 43% | 10 to 100 nM |  |  |
| O=C(O)c1ccc(NC(=O)N2C3CCC2CC(OCc2c(-c4ccccc4C4CC4)noc2C2CC2)C3)c(C(F)(F)F)c1 (stereo not shown) [Example 820] | 13% | 10 to 100 nM |  |  |
| CCOc1cc(C(=O)O)ccc1NC(=O)N1C2CCC1CC(OCc1c(-c3c(F)cccc3F)noc1C1CC1)C2 (stereo not shown) [Example 810] | 64% | 10 to 100 nM |  |  |
| O=C(Nc1ccc2ncccc2c1)N1C2CCC1CC(OCc1c(-c3c(Cl)cccc3Cl)noc1C1CC1)C2 (stereo not shown) [Example 22] |  | < 10 nM |  |  |
| CCOC(=O)c1cccnc1NC(=O)N1C2CCC1CC(OCc1c(-c3ccccc3OC(F)(F)F)noc1C1CC1)C2 (stereo not shown) [Example 767] | 136% | 100 to 1000 nM |  |  |
| COc1ccc(CNC(=O)N2C3CCC2CC(OCc2c(-c4c(Cl)cccc4Cl)noc2C2CC2)C3)cc1 (stereo not shown) [Example 731] | 229% | < 10 nM |  |  |
| O=C(NCCS(=O)(=O)O)c1ccc(NC(=O)N2C3CCC2CC(OCc2c(-c4c(Cl)cccc4Cl)noc2C2CC2)C3)c(F)c1 (stereo not shown) [Example 780] | 0% | 100 to 1000 nM |  |  |
| N#Cc1cccc(NC(=O)N2C3CCC2CC(NCc2c(-c4c(Cl)cccc4Cl)noc2C2CC2)C3)c1 (stereo not shown) [Example 93] |  | 10 to 100 nM |  |  |
| O=C(O)c1ccc(NC(=O)N2C3CCC2CC(OCc2c(-c4ccccc4OC(F)(F)F)noc2C2CC2)C3)nc1 (stereo not shown) [Example 769] | 132% | 100 to 1000 nM |  |  |
| CN1CCC(c2cccc(NC(=O)N3C4CCC3CC(OCc3c(-c5c(Cl)cccc5Cl)noc3C3CC3)C4)c2)CC1 (stereo not shown) [Example 5] |  | 10 to 100 nM |  |  |
| O=C(NS(=O)(=O)c1ccccc1)c1ccc(NC(=O)N2C3CCC2CC(OCc2c(-c4ccccc4OC(F)(F)F)noc2C2CC2)C3)cc1 (stereo not shown) [Example 756] | 205% | 100 to 1000 nM |  |  |
| CC(C)Oc1cc(C(=O)O)ccc1NC(=O)N1C2CCC1CC(OCc1c(-c3c(Cl)cccc3Cl)noc1C1CC1)C2 (stereo not shown) [Example 721] | 133% | 10 to 100 nM |  |  |
| COC(=O)c1ccc2c(c1)CN(C(=O)N1C3CCC1CC(OCc1c(-c4ccccc4OC(F)(F)F)noc1C1CC1)C3)C2 (stereo not shown) [Example 597] |  |  | 53% | 100 to 1000 nM |
| O=C(O)c1ccc(NC(=O)N2C3CCC2CC(OCc2c(-c4c(Cl)cccc4Cl)noc2C2CC2)C3)cc1-c1ccccc1 (stereo not shown) [Example 201] |  | < 10 nM |  |  |
| O=C(O)c1ccc(NC(=O)N2C3CCC2CC(OCc2c(-c4c(F)cccc4F)noc2C2CC2)C3)c(F)c1 (stereo not shown) [Example 808] | 32% | 10 to 100 nM |  |  |
| O=C(NS(=O)(=O)c1ccccc1)c1cccc(NC(=O)N2C3CCC2CC(OCc2c(-c4ccccc4OC(F)(F)F)noc2C2CC2)C3)c1 (stereo not shown) [Example 759] | 205% | > 1000 nM |  |  |
| O=C(O)c1ccc(NC(=O)N2C3CCC2CC(NCc2c(-c4c(Cl)cccc4Cl)noc2C2CC2)C3)cc1 (stereo not shown) [Example 826] | 63% | 10 to 100 nM |  |  |
| O=C(Nc1ccccc1C(F)(F)F)N1C2CCC1CC(OCc1c(-c3c(Cl)cccc3Cl)noc1C1CC1)C2 (stereo not shown) [Example 6] |  | 100 to 1000 nM |  |  |
| COC(=O)c1ccc(NC(=O)N2C3CCC2CC(OCc2c(-c4c(Cl)cccc4Cl)noc2C2CC2)C3)c(C2CC2)c1 (stereo not shown) [Example 800] | 54% | 10 to 100 nM |  |  |
| O=C(Nc1ccc(C(F)F)cc1)N1C2CCC1CC(OCc1c(-c3c(Cl)cccc3Cl)noc1C1CC1)C2 (stereo not shown) [Example 189] |  | 10 to 100 nM |  |  |

| Structure (SMILES) | Emax [1] | EC50 (potency range, read-out: EC50) | Emax | EC50 (EC50, potency range) |
| --- | --- | --- | --- | --- |
| O=C(Nc1cccc2ccccc12)N1C2CCC1CC(OCc1c(-c3c(Cl)cccc3Cl)noc1C1CC1)C2 (stereo not shown) [Example 19] |  | 10 to 100 nM |  |  |
| O=C(O)c1ccc(NC(=O)N2C3CCC2CC(OCc2c(-c4c(Cl)cccc4Cl)noc2C2CC2)C3)cc1C(F)(F)F (stereo not shown) [Example 195] |  | 10 to 100 nM |  |  |
| O=C(O)CNC(=O)c1ccc(NC(=O)N2C3CCC2CC(OCc2c(-c4c(Cl)cccc4Cl)noc2C2CC2)C3)c(F)c1 (stereo not shown) [Example 783] | 0% | 100 to 1000 nM |  |  |
| CCOC(=O)c1ccnc(NC(=O)N2C3CCC2CC(OCc2c(-c4ccccc4OC(F)(F)F)noc2C2CC2)C3)c1 (stereo not shown) [Example 765] | 272% | 10 to 100 nM |  |  |
| O=C(O)c1ccc(NC(=O)N2C3CCC2CC(OCc2c(C4CCC5(CC4)CC5)noc2C2CC2)C3)c(F)c1 (stereo not shown) [Example 285] |  | 10 to 100 nM |  |  |
| O=C(Nc1cnc2ccccc2c1)N1C2CCC1CC(OCc1c(-c3c(Cl)cccc3Cl)noc1C1CC1)C2 (stereo not shown) [Example 21] |  | 10 to 100 nM |  |  |
| O=C(NCc1cncc(-c2ccccc2)c1)N1C2CCC1CC(OCc1c(-c3c(Cl)cccc3Cl)noc1C1CC1)C2 (stereo not shown) [Example 739] | 108% | 10 to 100 nM |  |  |
| O=C(Nc1ccc(C(F)(F)F)cc1)N1C2CCC1CC(OCc1c(-c3c(Cl)cccc3Cl)noc1C1CC1)C2 (stereo not shown) [Example 8] |  | 100 to 1000 nM |  |  |
| N#Cc1ccc(NC(=O)N2C3CCC2CC(OCc2c(-c4c(Cl)cccc4Cl)noc2C2CC2)C3)cc1 (stereo not shown) [Example 9] |  | 10 to 100 nM |  |  |
| CCOC(=O)c1ccc2c(c1)CCCN2C(=O)N1C2CCC1CC(OCc1c(-c3ccccc3OC(F)(F)F)noc1C1CC1)C2 (stereo not shown) [Example 593] |  | > 1000 nM | 40% |  |
| O=C(Nc1ccc(F)c(C(F)(F)F)c1)N1C2CCC1CC(OCc1c(-c3c(Cl)cccc3Cl)noc1C1CC1)C2 (stereo not shown) [Example 702] | 258% | < 10 nM |  |  |
| O=C(NS(=O)(=O)C1CC1)c1cccc(NC(=O)N2C3CCC2CC(OCc2c(-c4ccccc4OC(F)(F)F)noc2C2CC2)C3)c1 (stereo not shown) [Example 264] |  | > 1000 nM |  |  |
| O=C(Nc1cccc(-c2ccncc2)c1)N1C2CCC1CC(OCc1c(-c3c(Cl)cccc3Cl)noc1C1CC1)C2 (stereo not shown) [Example 836] | 135% | < 10 nM |  |  |
| O=C(O)c1ccc2c(c1)N(C(=O)N1C3CCC1CC(OCc1c(-c4ccccc4OC(F)(F)F)noc1C1CC1)C3)CC2 (stereo not shown) [Example 590] |  | > 1000 nM | 67% |  |
| O=C(Nc1cccc(F)c1)N1C2CCC1CC(OCc1c(-c3c(Cl)cccc3Cl)noc1C1CC1)C2 (stereo not shown) [Example 1] |  | < 10 nM |  |  |
| Cn1cc(-c2cc(NC(=O)N3C4CCC3CC(OCc3c(-c5c(Cl)cccc5Cl)noc3C3CC3)C4)ccc2C(=O)O)cn1 (stereo not shown) [Example 776] | 11% | 100 to 1000 nM |  |  |
| O=C(O)c1ccc(NC(=O)N2C3CCC2CC(OCc2c(-c4c(Cl)cccc4Cl)noc2C2CC2)C3)c(C(F)(F)F)c1 (stereo not shown) [Example 710] | 170% | 10 to 100 nM |  |  |
| COC(=O)c1cc(F)c(NC(=O)N2C3CCC2CC(OCc2c(-c4c(Cl)cccc4Cl)noc2C2CC2)C3)cc1-c1ccccc1 (stereo not shown) [Example 794] | 80% | < 10 nM |  |  |
| CCOC(=O)c1ccc(NC(=O)N2C3CCC2CC(OCc2c(-c4c(Cl)cccc4Cl)noc2C2CC2)C3)cc1 (stereo not shown) [Example 182] |  | 10 to 100 nM |  |  |
| O=C(O)c1ccc(NC(=O)N2C3CCC2CC(OCc2c(-c4c(Cl)cccc4Cl)noc2C2CC2)C3)c(OC(F)(F)F)c1 (stereo not shown) [Example 717] | 149% | 100 to 1000 nM |  |  |
| O=C(c1ccc(-c2cccc(NC(=O)N3C4CCC3CC(OCc3c(-c5c(Cl)cccc5Cl)noc3C3CC3)C4)c2)cc1)N1CCOCC1 (stereo not shown) [Example 707] | 220% | 10 to 100 nM |  |  |
| COC(=O)c1ccc(NC(=O)N2C3CCC2CC(OCc2c(-c4c(Cl)cccc4Cl)noc2C2CC2)C3)cn1 (stereo not shown) [Example 212] |  | < 10 nM |  |  |
| COC(=O)c1ccc(NC(=O)N2C3CCC2CC(OCc2c(-c4c(Cl)cccc4Cl)noc2C2CC2)C3)c(C(F)(F)F)c1 (stereo not shown) [Example 709] | 119% | 100 to 1000 nM |  |  |
